Experimental data taken from ChEMBL document CHEMBL4354864, “Bicyclic α-Iminophosphonates as High Affinity Imidazoline I2 Receptor Ligands for Alzheimer's Disease” (J Med Chem, 2020).

How the values were obtained:
[1] = Displacement of [3H]2-BFI from I2IR in human brain frontal cortex assessed as binding affinity at high affinity site incubated for 45 mins by liquid scintillation spectrometry; assay type: tissue-based
[2] = Displacement of [3H]2-BFI from I2IR in human brain frontal cortex assessed as binding affinity at low affinity site incubated for 45 mins by liquid scintillation spectrometry; assay type: tissue-based
Homo sapiens [3] = species on record: Homo sapiens; assay: Displacement of [3H]2-BFI from I2IR in human brain frontal cortex assessed as binding affinity at high affinity site incubated for 45 mins by liquid scintillation spectrometry relative to control; assay type: tissue-based; design: concentration or dose not given beside the values
Homo sapiens [4] = species on record: Homo sapiens; assay: Selectivity ratio of Ki for alpha2-AR high binding site in human brain frontal cortex to Ki for I2IR high binding site in human brain frontal cortex
[5] = target: T1, Alpha-2A adrenergic receptor (Homo sapiens, UniProt P08913); assay: biochemical
T1 sequence (P08913 whole entry): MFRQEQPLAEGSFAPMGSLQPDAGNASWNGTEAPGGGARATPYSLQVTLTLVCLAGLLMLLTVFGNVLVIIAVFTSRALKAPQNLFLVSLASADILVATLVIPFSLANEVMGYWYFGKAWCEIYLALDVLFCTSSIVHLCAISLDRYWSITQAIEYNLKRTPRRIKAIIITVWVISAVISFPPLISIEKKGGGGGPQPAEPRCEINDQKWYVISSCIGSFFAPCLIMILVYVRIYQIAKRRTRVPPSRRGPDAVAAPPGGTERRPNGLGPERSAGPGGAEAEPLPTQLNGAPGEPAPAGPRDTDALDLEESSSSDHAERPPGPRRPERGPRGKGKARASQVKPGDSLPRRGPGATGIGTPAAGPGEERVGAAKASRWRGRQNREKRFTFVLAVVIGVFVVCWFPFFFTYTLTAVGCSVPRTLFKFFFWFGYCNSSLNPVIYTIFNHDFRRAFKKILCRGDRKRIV
Description: Displacement of [3H]RX821002 from alpha2-AR in human brain frontal cortex incubated for 30 mins by liquid scintillation spectrometry

[6] = Displacement of [3H]2-BFI from I2IR in Wistar rat brain cortex incubated for 90 mins by radioligand binding assay
[7] = Displacement of [3H]2-BFI from I2IR in Sprague-Dawley rat brain cortex assessed as binding affinity at high binding site incubated for 45 mins by liquid scintillation spectrometry
[8] = Displacement of [3H]2-BFI from I2IR in Sprague-Dawley rat brain cortex assessed as binding affinity at low binding site incubated for 45 mins by liquid scintillation spectrometry
Rattus norvegicus = species on record: Rattus norvegicus; assay: Displacement of [3H]2-BFI from I2IR in Sprague-Dawley rat brain cortex assessed as binding affinity at high binding site incubated for 45 mins by liquid scintillation spectrometry relative to control
[9] = Displacement of [3H]2-BFI from I2IR in human brain frontal cortex incubated for 45 mins by liquid scintillation spectrometry; assay type: tissue-based
Homo sapiens [10] = species on record: Homo sapiens; assay: Selectivity index, […] for alpha2-AR human brain frontal cortex […] in human brain frontal cortex
Nischarin = Nischarin (Homo sapiens, UniProt Q9Y2I1); assay: Displacement of [3H]clonidine from I1IR in human brain frontal cortex in presence of adrenaline incubated for 45 mins by liquid scintillation spectrometry; assay type: tissue-based
[11] = Displacement of [3H]2-BFI from I2IR in Sprague-Dawley rat brain cortex incubated for 45 mins by liquid scintillation spectrometry
[12] = Displacement of [3H]2-BFI from I2IR in Swiss mouse brain cortex incubated for 45 mins by liquid scintillation spectrometry

Nischarin, sequence (Q9Y2I1 whole entry): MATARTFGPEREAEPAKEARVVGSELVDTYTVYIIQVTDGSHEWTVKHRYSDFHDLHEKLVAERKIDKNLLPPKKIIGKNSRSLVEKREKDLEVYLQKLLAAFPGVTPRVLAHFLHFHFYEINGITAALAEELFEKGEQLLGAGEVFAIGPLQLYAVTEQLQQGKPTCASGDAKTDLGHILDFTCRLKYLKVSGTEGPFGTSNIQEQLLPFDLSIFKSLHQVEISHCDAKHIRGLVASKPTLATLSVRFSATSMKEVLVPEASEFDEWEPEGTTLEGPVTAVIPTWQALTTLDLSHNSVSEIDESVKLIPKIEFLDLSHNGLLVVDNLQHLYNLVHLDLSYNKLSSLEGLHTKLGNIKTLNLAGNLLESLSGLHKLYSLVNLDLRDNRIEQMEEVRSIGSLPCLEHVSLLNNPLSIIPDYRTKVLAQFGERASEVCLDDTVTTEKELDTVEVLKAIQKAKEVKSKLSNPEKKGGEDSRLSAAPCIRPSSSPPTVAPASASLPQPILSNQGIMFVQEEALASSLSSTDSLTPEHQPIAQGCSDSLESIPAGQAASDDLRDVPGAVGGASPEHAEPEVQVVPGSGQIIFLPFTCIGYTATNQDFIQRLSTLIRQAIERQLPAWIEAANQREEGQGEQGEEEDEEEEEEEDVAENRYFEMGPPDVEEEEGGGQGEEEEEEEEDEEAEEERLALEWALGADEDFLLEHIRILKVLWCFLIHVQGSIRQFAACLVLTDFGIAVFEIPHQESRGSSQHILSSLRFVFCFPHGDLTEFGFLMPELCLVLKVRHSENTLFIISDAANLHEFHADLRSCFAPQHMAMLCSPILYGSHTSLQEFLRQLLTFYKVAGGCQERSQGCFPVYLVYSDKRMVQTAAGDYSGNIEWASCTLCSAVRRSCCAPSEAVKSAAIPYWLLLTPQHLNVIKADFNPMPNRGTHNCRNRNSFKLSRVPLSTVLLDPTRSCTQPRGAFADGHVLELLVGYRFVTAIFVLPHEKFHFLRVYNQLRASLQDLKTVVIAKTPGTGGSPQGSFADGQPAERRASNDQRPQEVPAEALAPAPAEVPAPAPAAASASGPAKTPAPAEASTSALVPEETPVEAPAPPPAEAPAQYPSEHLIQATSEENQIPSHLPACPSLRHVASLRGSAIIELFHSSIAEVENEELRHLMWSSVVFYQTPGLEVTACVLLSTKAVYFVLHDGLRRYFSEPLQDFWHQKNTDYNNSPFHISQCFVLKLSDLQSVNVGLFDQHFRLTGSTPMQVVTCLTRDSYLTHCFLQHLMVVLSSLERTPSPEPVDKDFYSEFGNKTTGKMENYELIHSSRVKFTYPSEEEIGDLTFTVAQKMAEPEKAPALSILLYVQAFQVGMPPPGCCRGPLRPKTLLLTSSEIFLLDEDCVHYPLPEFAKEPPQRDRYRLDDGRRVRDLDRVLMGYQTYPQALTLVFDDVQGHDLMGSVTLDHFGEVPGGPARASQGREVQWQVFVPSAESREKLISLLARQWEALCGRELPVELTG

Row | Compound | Ki [5] [µM] | pKi [9] | IC50 (Nischarin) [µM] | further results
1 | c1ccc2oc(-c3ncc[nH]3)cc2c1 | 6.76 | – | – | pKi [1]: 9.03; pKi [2]: 5.25; Activity (Homo sapiens [3]): 49%; Ratio Ki (Homo sapiens [4]): 7240
2 | c1ccc(-c2ncc3cc(-n4ccnc4)ccc3n2)cc1 | 2240 | – | – | IC50 [6]: 0.596 µM; Ki [6]: 0.019 µM; pKi [1]: 7.72; pKi [2]: 5.45; Activity (Homo sapiens [3]): 29%; Ratio Ki (Homo sapiens [4]): 117000
3 | c1ccc2oc(C3=NCCN3)cc2c1 | 0.229 | – | – | Ki [1]: 0.00013 µM; pKi [1]: 9.87; pKi [2]: 7.94; Activity (Homo sapiens [3]): 21%; Ratio Ki (Homo sapiens [4]): 1700
4 | Cn1c(C2=NCCN2)cc2ccccc21 | – | – | – | pKi [1]: 6.89; pKi [2]: 3.82; Activity (Homo sapiens [3]): 51%; Ki [7]: 0.0014 µM; Ki [8]: 0.239 µM; inhibition (Rattus norvegicus): 58%
5 | CCOP(=O)(OCC)C1(c2ccccc2)N=CC2C(=O)N(CCc3ccccc3)C(=O)C21 (racemic) | 170 | 6.35 | 0.0105 | Ratio pKi (Homo sapiens [10]): 380
6 | CCOP(=O)(OCC)C1(c2ccccc2)N=CC2C(=O)N(Cc3ccccc3)C(=O)C21 (racemic) | – | 5.26 | 1.35 | –
7 | CCOP(=O)(OCC)C1(c2ccccc2)N=CC2C(=O)N(c3cccc([N+](=O)[O-])c3)C(=O)C21 (racemic) | – | 6.81 | 5.5 | –
8 | CCOP(=O)(OCC)C1N=CC2C(=O)N(c3ccc(F)c(Cl)c3)C(=O)C21 (racemic) | 0.00324 | < 3 | > 1000 | –
9 | CCOP(=O)(OCC)C1(c2ccccc2)N=CC2C(=O)N(c3cccc(Cl)c3)C(=O)C21 (racemic) | – | < 3 | – | –
10 | CCOP(=O)(OCC)C1(c2ccccc2)N=CC2C(=O)N(CC34CC5CC(CC(C5)C3)C4)C(=O)C21 (racemic) | 49 | 7.01 | – | Ratio pKi (Homo sapiens [10]): 501
11 | CCOP(=O)(OCC)C1(c2ccc(F)cc2)N=CC2C(=O)N(c3ccccc3)C(=O)C21 (racemic) | 0.17 | < 3 | – | –
12 | CCOP(=O)(OCC)C1(c2ccccc2)N=CC2C(=O)N(c3cc(Cl)cc(Cl)c3)C(=O)C21 (racemic) | 0.603 | 5.81 | – | –
13 | CCOP(=O)(OCC)C1(c2ccccc2)N=CC2C(=O)N(C)C(=O)C21 (racemic) | 1.17 | 7.97 | 0.646 | Ratio pKi (Homo sapiens [10]): 110
14 | CCOP(=O)(OCC)C1(c2ccccc2)N=CC2C(=O)N(c3c(Cl)cc(Cl)cc3Cl)C(=O)C21 (racemic) | 6.92 | < 3 | – | –
15 | CCOP(=O)(OCC)C1(c2ccccc2)N=CC2C(=O)N(c3ccc(C)cc3)C(=O)C21 (racemic) | – | 5.44 | – | –
16 | CCOP(=O)(OCC)C1(c2ccc(F)cc2)N=CC2C(=O)N(c3ccc(F)c(Cl)c3)C(=O)C21 (racemic) | 417 | 7.55 | – | Ratio pKi (Homo sapiens [10]): 14800
17 | CCOP(=O)(OCC)C1N=CC2C(=O)N(C)C(=O)C21 (racemic) | 0.00447 | 6.79 | 7.41 | –
18 | CCOP(=O)(OCC)C1(Cc2ccccc2)N=CC2C(=O)N(c3ccccc3)C(=O)C21 (racemic) | 115 | 6.59 | 7.59 | Ratio pKi (Homo sapiens [10]): 447
19 | CCOP(=O)(OCC)C1(c2ccccc2)N=CC2C(=O)N(c3ccc(F)cc3)C(=O)C21 (racemic) | 4.57 | < 3 | – | –
20 | CCOP(=O)(OCC)C1(c2ccccc2)N=CC2C(=O)N(c3ccc(C(F)(F)F)cc3)C(=O)C21 (racemic) | 18.6 | < 3 | – | –
21 | CCOP(=O)(OCC)C1(c2ccccc2)N=CC2C(=O)N(c3ccccc3)C(=O)C21 (racemic) | – | 10.28 | 0.182 | –
22 | CCOP(=O)(OCC)C1N=CC2C(=O)N(C3CCCCC3)C(=O)C21 (racemic) | 0.000324 | 5.74 | 7.24 | Ratio pKi (Homo sapiens [10]): 5
23 | CCOP(=O)(OCC)C1(c2ccccc2)N=CC2C(=O)N(c3ccc(Cl)c(Cl)c3)C(=O)C21 (racemic) | – | < 3 | – | –
24 | CCOP(=O)(OCC)C1(c2ccccc2)N=CC2C(=O)N(c3cccnc3Cl)C(=O)C21 (racemic) | > 1000 | 7.96 | – | Ratio pKi (Homo sapiens [10]): 91200

Row | Compound | Ki [5] [µM] | pKi [9] | IC50 (Nischarin) [µM] | further results
25 | CCOP(=O)(OCC)C1(c2ccccc2)N=CC2C(=O)N(c3ccccc3Cl)C(=O)C21 (racemic) | 0.708 | 5.09 | – | pKi [1]: 7.53; pKi [2]: 4.74; Activity (Homo sapiens [3]): 25%; Ratio Ki (Homo sapiens [4]): 24
26 | CCOP(=O)(OCC)C1(c2ccccc2)N=CC2C(=O)N(c3cccc4ccccc34)C(=O)C21 (racemic) | > 1000 | 3.11 | – | –
27 | CCOP(=O)(OCC)C1(c2ccccc2)N=CC2C(=O)N(c3ccc(Oc4ccccc4)cc3)C(=O)C21 (racemic) | – | 6.96 | – | –
28 | CCOP(=O)(OCC)C1(c2ccccc2)N=CC2C(=O)N(c3ccc(OC)cc3)C(=O)C21 (racemic) | – | 6.65 | 603 | –
29 | CCOP(=O)(OCC)C1(c2ccccc2)N=CC2C(=O)N(c3cccc(C(F)(F)F)c3)C(=O)C21 (racemic) | – | < 3 | – | –
30 | CCOP(=O)(OCC)C1(c2ccccc2)N=CC2C(=O)N(C3CCCCC3)C(=O)C21 (racemic) | – | – | 0.0288 | –
31 | CCOP(=O)(OCC)C1N=CC2C(=O)N(c3ccc(OC)cc3)C(=O)C21 (racemic) | 5.37e-05 | 5.11 | 0.00813 | –
32 | CCOP(=O)(OCC)C1(c2ccc(OC)cc2)N=CC2C(=O)N(c3ccc(F)c(Cl)c3)C(=O)C21 (racemic) | > 1000 | 7.87 | – | Ratio pKi (Homo sapiens [10]): 74100
33 | CCOP(=O)(OCC)C1(c2ccccc2)N=CC2C(=O)N(c3ccc(Cl)cc3)C(=O)C21 (racemic) | – | < 3 | – | –
34 | CCOP(=O)(OCC)C1N=CC2C(=O)N(c3ccccc3)C(=O)C21 (racemic) | 9.55 | 7.73 | 3.39 | –
35 | CCOP(=O)(OCC)C1(c2ccccc2)N=CC2C(=O)N(C3Cc4ccccc4C3)C(=O)C21 (racemic) | 363 | 3.84 | – | Ratio pKi (Homo sapiens [10]): 2; pKi [1]: 6.87; pKi [2]: 3.2; Activity (Homo sapiens [3]): 22%; Ratio Ki (Homo sapiens [4]): 2690
36 | CCOP(=O)(OCC)C1(c2ccccc2)N=CC2C(=O)N(C(C)(C)C)C(=O)C21 (racemic) | 0.17 | 7.35 | – | Ratio pKi (Homo sapiens [10]): 3
37 | CCCN1C(=O)C2C=NC(c3ccccc3)(P(=O)(OCC)OCC)C2C1=O (racemic) | – | 4.02 | – | –
38 | CCOP(=O)(OCC)C1(Cc2ccc(F)cc2)N=CC2C(=O)N(c3ccccc3)C(=O)C21 (racemic) | 0.0631 | 5.35 | – | –
39 | CCOP(=O)(OCC)C1(c2ccccc2)N=CC2C(=O)N(c3cc([N+](=O)[O-])ccc3C)C(=O)C21 (racemic) | – | < 3 | – | –
40 | CCOP(=O)(OCC)C1(c2ccc(OC)cc2)N=CC2C(=O)N(c3ccccc3)C(=O)C21 (racemic) | 141 | 3.39 | – | –
41 | CCOP(=O)(OCC)C1(c2ccccc2)N=CC2C(=O)N(CCc3ccc(F)cc3)C(=O)C21 (racemic) | 2.24 | < 3 | – | –
42 | CCOP(=O)(OCC)C1(c2ccccc2)N=CC2C(=O)N(CC)C(=O)C21 (racemic) | 1.41 | 8.37 | – | Ratio pKi (Homo sapiens [10]): 331; pKi [1]: 8.95; pKi [2]: 5.86; Activity (Homo sapiens [3]): 62%; Ratio Ki (Homo sapiens [4]): 1260
43 | CCOP(=O)(OCC)C1(c2ccccc2)N=CC2C(=O)N(c3ccc(-c4ccccc4)cc3)C(=O)C21 (racemic) | – | 7.9 | 0.0646 | –
44 | CCOP(=O)(OCC)C1(c2ccccc2)N=CC2C(=O)N(c3ccc(Br)cc3)C(=O)C21 (racemic) | – | < 3 | – | –
45 | c1ccc2c(c1)OCC(C1=NCCN1)O2 (stereo not given) [IDAZOXAN] | – | – | – | pKi [1]: 7.74; pKi [11]: 7.17; pKi [12]: 5.68
46 | COc1nc(C)nc(Cl)c1N=C1NCCN1 [MOXONIDINE] | – | – | 0.00355 | –
47 | C(=C\c1ccccc1)/C1=NCCN1 [TRACIZOLINE] | 46.8 | – | – | Ki [1]: 0.0033 µM; pKi [1]: 8.48; pKi [2]: 6.48; Activity (Homo sapiens [3]): 38%; Ratio Ki (Homo sapiens [4]): 14100
